pKd: −log10 of the molar value. Entries after “also recorded” stand apart in the source; their conditions may differ.
Legend:
arginase [1] = molecular target: T1, arginase (Rattus norvegicus, UniProt P07824); assay: dialysis/dilution reversibility experiments with pre-incubated arginase-inhibitor complex; format: biochemical; set-up: made in house
T1 sequence (P07824 1-323): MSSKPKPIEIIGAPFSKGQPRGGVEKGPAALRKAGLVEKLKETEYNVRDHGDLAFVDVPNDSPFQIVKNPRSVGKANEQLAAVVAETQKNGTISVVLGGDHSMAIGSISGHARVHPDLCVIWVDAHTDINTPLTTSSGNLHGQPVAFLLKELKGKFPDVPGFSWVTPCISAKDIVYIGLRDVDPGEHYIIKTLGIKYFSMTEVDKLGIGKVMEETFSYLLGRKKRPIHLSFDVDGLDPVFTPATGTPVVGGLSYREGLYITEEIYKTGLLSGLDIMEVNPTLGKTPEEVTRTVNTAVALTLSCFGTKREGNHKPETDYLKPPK
Method: Dialysis experiments of arginase with the arginase-compound 7 and arginase-compound 15 complexes were performed in following way. Thirty microliters of arginase at a concentration of 11.2 milligrams per milliliter were pre-incubated for thirty minutes with an appropriate concentration of compound 7 (5 microliters of 100 micromolar stock solution). […] Pre-incubates were then added to bicine buffer containing 4 millimolar compound 18. The final volume of the assay reaction solution was 1 milliliter.

arginase [2] = molecular target: T1, arginase; assay: biochemical; conditions: Kd from competition binding experiments using N-hydroxyarginine, pH 7.5 and pH 9.0
From the text: Additional evidence for high affinity binding of arginase and ABHA was derived from competition binding experiments using ABHA and N-hydroxyarginine, as monitored by fluorescence spectroscopy. Addition of N-hydroxyarginine to a solution of arginase results in a significant decrease in intrinsic protein fluorescence at 327 nanometers.

[3] = test system: internal anal sphincter (IAS) smooth muscle; assay: NANC nerve-mediated relaxation of IAS smooth muscle strips by electrical field stimulation; set-up: species or system opossum (Didelphis virginiana); conditions: for decrease in basal IAS tension after ABHA: 1×10^−4 molar
From the text: The entire anal canal was isolated carefully by dissection and transferred to a dissecting tray containing oxygenated (95% O2 plus 5% CO2) Krebs' solution. The composition of the Krebs' solution was as follows (in millimolar): NaCl, 118.07; KCl 4.69; […] MgSO4, 1.16; […] NaHCO3, 25 and glucose (Pufahl et al., 1995, Biochemistry 34:1930-1941; […] et al., 1993, Biochem. Biophys. Res. Commun. 196:1558-1565). The anal canal was cleaned of extraneous connective tissue and blood vessels. Following this, the anal canal was opened by making an incision along the longitudinal axis, and was pinned flat with the mucosal side facing up. The mucosa and submucosa were removed by sharp dissection. Circular smooth muscle strips were obtained from the whole circumference of the anal canal and divided into two equal strips (about 1×8 millimeters). Both ends of the muscle strips were secured with silk sutures (4-0: Ethicon Inc., Sommerville, N.J.) and used for the measurement of isometric tension. […] One end of each muscle strip was fixed to the bottom of the muscle bath with a tissue holder and the other end was attached to an isometric force transducer (model FT03; Grass Instruments Co., Quincy, Mass.) in order to measure isometric tension. Smooth muscle tension was recorded using a […] recorder (model […]; Beckman Instruments, Schiller Park, Ill.). […] J. Physiol. 255:[…]-[…]). Only those smooth muscle strips that developed spontaneous and steady tension and relaxed in response to electrical field stimulation (EFS) were used. EFS was delivered, via a pair of platinum wires, from a Grass stimulator (Model S88; Grass Instruments Co., Quincy, Mass.) connected in series to a Med-Lab […] (Med-Lab Instruments, Loveland, Colo.). […] These parameters of EFS are known to cause relaxation of IAS smooth muscle by selective activation of NANC myenteric neurons. Neurally-mediated relaxation of IAS smooth muscle strips was quantified in response to different frequencies of EFS. […] To determine the influence of arginase on NANC nerve-mediated relaxation of IAS, the effects of different doses of arginase on relaxation were first determined. […] The effectiveness of arginase inhibitors (L-OH-Arg and ABHA) on arginase-induced attenuation of EFS-induced IAS relaxation was then tested. Optimal doses of arginase and L-OH-Arg in IAS have been reported ([…] and […]. Pharmacol. Exp. Ther. 282:378-384). In order to determine the selectivity of arginase inhibitors in IAS, their effects on IAS relaxation suppressed by the NO synthase inhibitor L-NNA ([…]) were tested. […] To examine the physiological relevance of arginase inhibitors in IAS relaxation, the influence of selected concentrations of arginase inhibitors on EFS-induced IAS relaxation was examined. […] Each smooth muscle strip served as its own control. […] The results are expressed as means±standard error.

SMILES: N[C@@H](CCCCB(O)O)C(=O)O [compound 7, 2(S)-amino-6-boronohexanoic acid]
- inhibited velocity, control without pre-incubation (arginase [1]; 9.6 micromolar arginase, 0.5 micromolar ABHA): 0.47 micromolar per minute
- reversibility of inhibition (arginase [1]; 30 minutes pre-incubation): reversible inhibitor
- observed inhibited velocity, diluted pre-incubate (arginase [1]; 30 minutes pre-incubation, diluted to 0.5 micromolar ABHA and 9.6 micromolar arginase): 0.46 micromolar per minute
- reversibility of inhibition (arginase [1]; 30 minutes pre-incubation, listed as ABHA): completely instantaneous reversible inhibition
- pKd (arginase [2]): ≥ 7.00
- decrease in basal IAS tension after ABHA ([3]; 0.5 Hertz EFS): 56.5±7.0%
- decrease in basal IAS tension after ABHA ([3]; 1 Hertz EFS): 73.6±3.5%
- effect on arginase-suppressed EFS-induced IAS relaxation ([3]; exogenous arginase, L-HO-Arg 1×10^−4 molar, listed as ABHA): reversal
- augmentation of NANC nerve-mediated IAS relaxation by EFS ([3]; lower frequencies of EFS, listed as ABHA): significant and concentration-dependent augmentation
- reversal of L-NNA-suppressed IAS relaxation ([3]; with L-NNA, L-HO-Arg and ABHA 3×10^−4 molar): did not cause any reversal; also recorded: no effect

— patent US6723710B2, “Compositions for inhibiting arginase activity” (The Trustees of the University of Pennsylvania, priority 1997, dated 2004)
